# Patent publication US20150344535A1, “NEUROTROPHIN-TYROSINE KINASE RECEPTOR SIGNALING” (THE UNIVERSITY OF QUEENSLAND, priority 2012, published 2015)
# Experiments:
# PC12 cells [1] = experiment: PC12 cell neurite outgrowth in response to NGF; format: cell-based; settings: for neurite growth: fragments incubated with PC12 cells and NGF, FIG. 16
# Description: (§1) To assess the effect of p75^NTR constructs (FIG. 2) or c29 peptide on TrkA-mediated neuritogenesis, transfected PC12 cells were grown in the presence of 100 ng/ml NGF for 3 days, with fresh medium and NGF treatments added on day 2. Cells were then imaged live on an Olympus (IX81) microscope fitted with a CO2 atmospheric chamber, using analySIS software. Four random images of 80-100 cells were taken for each treatment condition and images were determined by measuring polygon neurite length of all cells in each image. Data analysis was performed using Graphpad PRISM.
# Once PC12 cells are fully differentiated, they become dependent on NGF for survival (Greene, 1978), but can survive if grown in the presence of lower concentrations of NGF (Greene and Tischler, 1976). To determine if c29 could potentiate TrkA-mediated signals, PC12 cells were cultured in the presence of NGF concentrations ranging from 1-100 ng/ml for 5 days, following serum starvation and pre-incubation with c29, scrambled control peptide or no peptide (FIG. 5A). […] Peptides (1 μM) were added to the cultures every 48 hours at the time of NGF addition and medium exchange.
# TrkA = experiment: Biotinylated peptide pull down of TrkA; format: binding; settings: TrkA pull downs, FIG. 15F
# Description: For peptide pull down assays, the biotinylated c29 or LC1 control peptides were incubated with protein A-sepharose beads or Dynabeads MyOne Streptavidin T1 (Invitrogen) overnight at 4° C. Cell lysates were then added to the peptide-protein A-sepharose complex or Dynabeads MyOne Streptavidin T1 and incubated for 3 hours at 4° C. Peptide-receptor complexes were washed extensively with RIPA lysis buffer and eluted by boiling in Laemmli sample buffer. For p75^NTR construct immunoprecipitations, HEK293 cells were treated with NGF at 50 ng/ml for 10 minutes 48 hours after transfection with 1 μg DNA per well. Cells were immediately harvested in ice-cold phosphate buffered saline (PBS) and washed twice, then lysed in 1 ml of lysis buffer. Cell lysates were pre-cleared in 75 μl (1:2) protein-G sepharose: PBS by rotation end-over-end for 2 hours at 4′C. Lysates were then incubated with 3-5 μg antibody, either mouse-anti-YFP/GFP (Roche) or rabbit-anti-human p75^NTR intracellular domain antibody (Promega), and rotated end-over-end for 2 hours at 4° C.
# (§2) Immunoprecipitation was performed by the addition of 75 μl (1:2) protein-G sepharose: PBS and incubation end-over-end for 16 hours at 4° C. The immunoprecipitate was washed 4 times with 1 ml of PBS then eluted in 60 μl 2×LDS sample buffer. For immunoblotting, samples were boiled for 5 minutes, separated by SDS-PAGE and transferred onto nitrocellulose membranes, then western blotted using standard protocols (see Example 1 for antibodies used).
# The c29 peptide was labelled with biotin and attached to a sepharose bead column. Lysates from cells was passed over the column followed by several wash steps. The proteins that bound to the c29 peptide (proteins that are pulled down) were eluted from the column with SDS buffer and separated in size by SDS-PAGE electrophoresis. The gel was Western blotted and the membrane probed with antibodies to proteins of interest.
# PC12 cells [2] = experiment: PC12 cell neurite outgrowth in response to EGF; format: cell-based; settings: EGF plus secretase inhibitor, 5 days
# Description: as §1
# To determine whether the effect of the c29 peptide on enhancement of neurite outgrowth was NGF and TrkA specific, we repeated the experiment using EGF to stimulate differentiation.
# PC12 cells [3] = experiment: PC12 cell neurite outgrowth in response to NGF; format: cell-based; settings: NGF plus secretase inhibitor over 5 days
# pErk1/2 and pAkt = experiment: Western blot of pErk1/2 and pAkt in PC12 cell lysates; format: cell-based; settings: absence of NGF, 24 hours
# Description: In biochemical experiments, PC12 and HEK293 cells were lysed for 20 minutes on ice in lysis buffer as described by (Ceni et al., 2010). Briefly, the lysis buffer contained 10 mM Tris-HCl, 150 mM NaCl, 2 mM EDTA, 1% (v/v) NP-40, 1% (v/v) TX-100, 10% Glycerol, 1 mM PMSF, 1 mM Sodium Orthovanadate, 1 μM BB94, 1% (v/v) Roche protease inhibitor cocktail and pH 8.0 (Ceni et al., 2010).
# as §2
# The observed functional effects on neurite outgrowth and survival were next correlated with enhanced activation of signal transduction pathways that mediate the trophic effects of TrkA. Lysates of cells treated for 24 hours with NGF alone or in combination with c29 or scrambled peptide were immunoblotted for pErk1/2 (neurite outgrowth), and the serine/threonine protein kinase Akt (survival). […] Total levels of Erk1/2 or Akt were unaffected by any treatment (FIG. 6 A, B).
# [4] = system: primary E13 motor neurons; experiment: Primary motor neuron survival and growth factor withdrawal; format: cell-based, mouse; settings: 1 ng/ml BDNF plus NGF
# Description: Briefly, pregnant mothers were sacrificed by cervical dislocation and the uterus removed by Caesarean section and placed in Neurobasal medium. Lumbar spinal cords were dissected from E13 embryos on ice. Batches of 2 or 3 spinal cords were incubated in 1 mL 0.05% trypsin-ETDA for 10 minutes at 37° C. in 15 mL tubes. To prevent further trypsinisation, 0.14 mg/mL trypsin inhibitor solution was added and the tissue centrifuged at 100×g for 7 minutes, without acceleration or deceleration. The supernatant was removed and the spinal cord tissue was resuspended in 1 mL of Neurobasal Medium (NB). In order to obtain a single cell suspension, each batch of 2-3 spinal cords was agitated manually for 2 minutes. The suspension was allowed to settle and the supernatant collected after being filtered through a 100 μm sieve. The remaining tissue was further triturated ˜8 times through a P200 pipette and filtered through a 100 μm sieve. The combined supernatants were then separated by centrifugation on a 5 ml cushion of 9% (vol/vol) OptiPrep® gradient in NB containing 2% B27 supplement for 45 min at 850×g, without acceleration or deceleration. To prevent toxicity following Optiprep® separation, the layer containing MNs was harvested into 10 mL of NB containing 10% HS, and the cell suspension was centrifuged at 900×g for 7 minutes at 24° C., without acceleration or deceleration. The supernatant was removed and the cell pellet was resuspended in 1 mL of NB medium.
# The number of viable motor neurons was counted on a haemocytometer using 0.08% trypan blue and neurons plated in 4-well culture dishes at a density of 3,000 cells per well in 100 μL NB containing 10% HS. […] Primary motor neurons were maintained at 37° C. in a humidified atmosphere with 5% CO2 and culture medium was replaced at day 1 and 3. Phase contrast images of motor neurons were taken using an Olympus (6IX81) microscope after motor neurons were grown in vitro for up to 7 days.
# To assess the effects of c29 peptide on motor neuronal survival in limiting growth factor concentrations, isolated spinal motor neurons were plated and treated with 0.01, 0.1 or 1.0 ng/ml of BDNF in the presence of 1 μm PTD4-linked c29 or scrambled peptide, and cultured for 5 days with the addition of fresh BDNF and peptide treatments on day 2 and 4. For growth factor-withdrawal assays, following initial plating in 1 ng/ml of BDNF, CNTF or GDNF, cultures were washed four times with serum-free Neurobasal (NB) medium, after which the medium was replaced with medium containing 1-0.01 ng/ml of BDNF, CNTF or GDNF and 1 μM PTD4-linked c29 or scrambled peptides, as indicated. For assays investigating the effect of c29 on NGF-mediated motor neuron death, cultures were grown in 1 ng/ml BDNF, CNTF or GDNF for 1 day, before being treated with 100 ng/ml 2.5S NGF in and 1 μM PTD4-linked c29 or scrambled peptide, as indicated. Motor neurons were counted on day 1, and to assess the effects of various treatments days 3 and 5 (4 separate 10×10 grid fields of each well per experiment).
# PC12 cells [5] = experiment: NGF-FITC binding by flow cytometry, PC12 cells; settings: NGF-FITC, c.f. PC12
# Description: The NGF was conjugated to FITC by standard methods and detailed flow cytometry acquisition and analysis. For NGF-FITC conjugation 400 μg βNGF in 200 μl pH 8.5 NaHCO3 buffer was mixed with 5-10 μl of 10 mg/ml FITC in 100 μl DMSO for 10 hours at 4° C. on an orbital shaker set to 100 rpm. The excess FITC was removed by dialysis against 3 changes of 5 L of 10 mM Tris, 150 mM NaCl, 0.2% acetic acid, pH 8.2 for 24 hours at 4° C. Conjugate F/P characterization was determined by measuring absorbance at 280 nm and 495 nm according to manufacturer's instructions. Biological activity of the NGF-FITC conjugate was tested by performing PC12 cell neurite outgrowth assays unlabelled NGF, and comparing the levels of neuritogenesis. NGF-FITC conjugates were used within 4 weeks of synthesis.
# For the flow cytometry NGF binding assays, fluorescence cell parameters of at least 20,000 events for PC12 cells and 100,000 events for HEK293 cells were acquired by flow cytometry list mode and measurements were performed on a single cell basis (with compensation for double event counting). Dead cells and debris were gated out of the analysis on the basis of forward scatter fluorescence, and mean, median and maximal fluorescence values of the gated cell populations were analysed using FACS Diva Software (Becton-Dickinson Biosciences) and FACS Express Software (Becton-Dickinson Biosciences).
# (§3) Background fluorescence of HEK293 cells was non-transfected cells (±c29 or scrambled peptide treatment) treated with 26 nM NGF-FITC. For PC12 cells, the control population was cells that had not been treated with NGF-FITC. Analysis of real-time NGF-FITC receptor binding experiments was performed on 550,000-600,000 cells at 4° C. in serum free NB medium and binding kinetics were calculated from raw data files compressed to 50,000 binding events using FlowJo and MatLab Software. Data was plotted with the use of GraphPad Prism.
# (§4) Only NGF-FITC preparations that promoted equivalent neurite outgrowth of PC12 cells to that of unlabelled NGF were used in binding experiments. To investigate NGF binding, PC12 or transfected HEK293 cells were serum starved for 4 hours, harvested, washed with Dulbecco's Modified Eagle Medium (DMEM), and counted. When used, c29 or scrambled peptide were added to cultures for the third hour of the serum starvation procedure. 1×10^7 cells/ml suspended in 500 μl of serum-free DMEM were incubated with 26 nM NGF-FITC on ice for 60 minutes before analysis. For binding competition assays, following 1 hour in NGF-FITC, cells were washed with ice-cold PBS containing 0.1% normal bovine serum and incubated on ice with unlabeled NGF at concentrations ranging from 100 pM to 10 μM for 30 minutes, then washed twice in PBS before being analysed on a BD Flow Cytometer FACS Scan (Becton-Dickinson).
# First, to determine the concentration of c29 required to modulate NGF binding, c29 levels were titrated with a fixed concentration of NGF-FITC.
# HEK293 cells = experiment: NGF-FITC binding by flow cytometry, non-transfected HEK293 cells
# Description: as §3
# as §4, with “1×10^7 cells/ml suspended in 500 μl of serum-free DMEM were incubated with 26 nM NGF-FITC on ice for 60 minutes before analysis.” left out
# TrkA and p75^NTR = experiment: Surface biotinylation of receptors in PC12 cells; format: cell-based; settings: 1 μM peptide, with or without NGF
# Description: FIG. 10: The juxtamembrane domain of p75^NTR increases the association of NGF to cells expressing TrkA. (A and B) Dose response graphs of the proportion (%) of PC12 cells with fluorescence intensity above background following treatment with 26 […] NGFFITC, a FITC-conjugated antibody to the extracellular domain of p75^NTR (A), or an antibody to TrkA (detected using an anti-rabbit Alexa 594 secondary) (B), after pretreatment with increasing concentrations of […] peptide. (n=3 experiments per data point; mean±SEM *p<0.05, **p<0.01) (C) Representative western blots (WB) of TrkA and p75^NTR present in streptavidin precipitates (surface biotin), or lysate flow through of PC12 cells that had been treated for 1 hour with NGF and/or c29 and scrambled (SC) peptide, prior to the surface proteins being labelled with biotin for 90 minutes on ice.
# p75^FL = experiment: Production of endogenous p75^CTF or p75^ICD fragments in p75^FL-transfected HEK293 cells; format: cell-based; settings: vs untreated cells, data not shown
compound,measurement,setting,value
KRWNSCKQNKQGAN (c1-14 - Fragment of p75ICD) [(1-14)],neurite growth,PC12 cells [1],stimulated neurite growth
same,TrkA binding of biotinylated fragments,TrkA,clearly bind TrkA
KRWASA [c1-6C6A],neurite growth,PC12 cells [1],stimulated neurite growth
KRWNSC (c1-6 - Fragment of p75ICD) [(1-6)],neurite growth,PC12 cells [1],stimulated neurite growth
same,TrkA binding of biotinylated fragments,TrkA,clearly bind TrkA
ARWNSC [c1-6K1A],neurite growth,PC12 cells [1],stimulated neurite growth
"C[C@H](NC(=O)Cc1cc(F)cc(F)c1)C(=O)N[C@H]1N=C(c2ccccc2)c2ccccc2N(C)C1=O [compound E, (S,S)-2-[2-(3,5-Difluorophenyl)-acetylamino]-N-(1-methy-2-oxo-5-phenyl-2,3-dihydro-1H-benzo[e][1,4]diazepin-3-yl)-propionamide]",PC12 cell differentiation induced by EGF,PC12 cells [2],neither the α- nor the γ-secretase inhibitor had any significant effect
same,neurite length,PC12 cells [3],20 μm
"(22-29): truncated peptide fragment of c29, residues 22-29 (PPPEGEKL)",neurite growth,PC12 cells [1],stimulated neurite growth
same,TrkA binding of biotinylated fragments,TrkA,clearly bind TrkA
SRPVNQTPPPEGEKL (c15-29 - Fragment of p75ICD) [(15-29)],neurite growth,PC12 cells [1],stimulated neurite growth
same,TrkA binding of biotinylated fragments,TrkA,clearly bind TrkA
"CC(C)C[C@H](CC(=O)NO)C(=O)N[C@H](C(=O)N[C@@H](C)C(=O)NCCN)C(C)(C)C [TAPI-2, N—(R)-(2-(Hydroxyaminocarbonyl)Methyl)-4-Methylpentanoyl-L-t-Butyl-Glycine-L-Alanine 2-Aminoethyl Amide]",PC12 cell differentiation induced by EGF,PC12 cells [2],neither the α- nor the γ-secretase inhibitor had any significant effect
same,neurite length,PC12 cells [3],20 μm
"SKGQVCRNQPGQNKPEPANKSWKETPLRN [SC, randomly scrambled version of c29, reference compound]",median neurite outgrowth,"PC12 cells [1]; 100 ng/ml NGF, day 5, peptide 1 μM, vs untreated cultures",no difference
same,pAkt signalling,pErk1/2 and pAkt,no effect
same,pErk1/2 signalling,pErk1/2 and pAkt,no effect
same,NGF-induced cell death of motor neurons,[4],no effect
same,% of cell population with FITC above background,PC12 cells [5],100.3 ± 5.1%
same,Maximal fluorescence per cell of the population,PC12 cells [5],100.4 ± 9.6%
same,Mean fluorescence per FITC-positive cell,PC12 cells [5],95.3 ± 7.4%
same,Median population fluorescence,PC12 cells [5],97.0 ± 3.8%
same,fluorescence of nontransfected cells incubated with peptide and NGF-FITC,HEK293 cells,only background levels of fluorescence
same,surface or total receptor levels of TrkA and p75^NTR,TrkA and p75^NTR,no significant difference
same,rate of production of endogenous p75^CTF or p75^ICD fragments,p75^FL,did not differ significantly
KRWASC [c1-6N4A],neurite growth,PC12 cells [1],stimulated neurite growth
